The values that follow come from patent US5569456A, “Biologically active rupununines” (priority 1994, dated 1996).

Data set [1] can be described thus: Solubility of crystalline rupununine in organic solvents. Format: physicochemical. Conditions: crystalline white solid. On the procedure:
(§1) Rupununine (100 mg.) was dissolved in the minimum volume of distilled acetone (2 ml). The solution was warmed gently, filtered and then left in the refrigerator overnight. This produced white needles which were recrystallized in acetone giving crystalline rupununine (45 mg.). Further crystalline samples were also obtained by the same treatment with acetone, of Fraction C.1 and C.2. The crystals were dried in a drying pistol under nitrogen, over phosphorus pentoxide at 60° C. overnight. […] The crystals melted between 214°-217° C., and were fairly stable, if kept under nitrogen at room temperature, even for prolonged periods.

Data set [2] is described as follows: Stability of rupununine crystals under nitrogen at room temperature. Format: physicochemical. The following applies: crystals kept under nitrogen at room temperature, prolonged periods. The protocol:
as §1

Consider rupununine, for which the solubility in chloroform result in data set [1] (chloroform) is “fairly soluble”. For the same substance, the solubility in ethanol entry in data set [1] (ethanol) is listed as “fairly soluble”. Further, the solubility in ether result in data set [1] (ether) was “only partially soluble”. In data set [1] (methanol), the solubility in methanol result was “fairly soluble”. Moreover, in data set [2], the stability entry is on record as “fairly stable”.
